A word on the IC50: it is the midpoint of a concentration-inhibition curve.

Each structure is given as a SMILES string.

One assay has as its target T1, hP2X4 (Homo sapiens, UniProt Q99571).
T1 construct: expressed in transfected cells; host or cells: HEK-293 mito-Photina, clone 2a/4
T1 sequence (Q99571 1-388): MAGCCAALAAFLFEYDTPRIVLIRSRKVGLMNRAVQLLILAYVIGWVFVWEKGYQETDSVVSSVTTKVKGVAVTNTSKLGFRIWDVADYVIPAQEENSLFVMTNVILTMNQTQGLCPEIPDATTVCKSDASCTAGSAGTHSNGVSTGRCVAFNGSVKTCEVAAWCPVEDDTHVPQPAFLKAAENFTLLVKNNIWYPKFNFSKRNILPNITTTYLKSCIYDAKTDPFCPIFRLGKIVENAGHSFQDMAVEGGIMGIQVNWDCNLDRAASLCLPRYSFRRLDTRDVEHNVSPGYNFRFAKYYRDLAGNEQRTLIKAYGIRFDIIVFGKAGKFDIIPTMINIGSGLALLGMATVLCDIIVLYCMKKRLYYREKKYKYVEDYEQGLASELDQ
The experiment in a line: Human P2X4 HEK Cell Electrophysiology Assay B (QPatch). The format is cell-based. Particulars: ATP 5 microM, -90 mV; read-out: Human P2X4 HEK Cells (QPatch Electrophysiology) avg IC50. The method, then: Cell culture conditions: HEK-293 mito-Photina pcDNA3(neo-)/pPURO N/pcDNA3_P2RX4, clone 2a/4 (HEK-293 mito-Photina/hP2RX4) cells were cultured in EMEM Minimum Essential Medium Eagle with Earl's salts Balanced Salt Solution (BioWhittaker cat. BE12-125F) supplemented with 5 mL of 200 mM Ultraglutaminel (BioWhittaker cat. BE17-605E/U1), 5 mL of 100× Penicillin/Streptomycin (BioWhittaker cat. DE17-602E; final concentration 1%), 4 mL of 50 mg/mL G418 (Sigma cat. G8168-100 mL; final concentration 400 μg/mL), 10 μL of 10 mg/mL Puromicin (InvivoGen cat. ant-pr-1; final concentration 0.2 μg/mL) and 50 mL of Fetal Bovine Serum (Sigma cat. F7524; final concentration 10%).
Experimentalprotocol: HEK-293 cell lines are seeded 72 or 96 hours before experiment, at a concentration of 5 or 2.5 million cells, respectively onto a T225 flask. Just before the experiments cells are washed twice with D-PBS w/o Ca2+/Mg2+(Euroclone cat. ECB4004L) and detached from the flask with trypsin-EDTA (Sigma, cat. T4174 diluted 1/10). Cells are then re-suspended in the suspension solution: 25 mL EX-CELL ACF CHO medium (Sigma, cat. C5467); 0.625 mL HEPES (BioWhittaker, cat. BE17-737E); 0.25 mL of 100× Penicillin/Streptomycin (BioWhittaker, cat. DE17-602E), 0.1 mL of Soybean Trypsin Inhibitor 10 mg/mL (Sigma, cat. T6522) and placed on the QPatch 16X.
Compound preparation and storage: Compound stock solutions (10 mM; 100% DMSO; stored at −20° C.) were used. Fresh solutions from stock (1 or 3 mM, 100% DMSO) were prepared just before the experiments (0.1% final DMSO concentration).
Patch clamp analysis with QPatch16X (FIG. 1): Standard whole-cell voltage clamp experiments are performed at room temperature using the multihole technology.
For the voltage clamp experiments on hP2X4, data are sampled at 2 KHz. After establishment of the seal and the passage in the whole cell configuration, the cells are held at −90 mV and the hP2X4 current is evoked by the agonist in the absence (vehicle period, i.e. 0.1% DMSO) or in the presence of the compound under investigation at increasing concentrations; see the application protocol in FIG. 1.
Output: the maximum inward current induced by the agonist (ATP 5 microM).
The intracellular solution contained (mM) 135 CsF, 10 NaCl, 1 EGTA, 10 HEPES (pH 7.2 with CsOH) whereas the extracellular solution (mM) 145 NaCl, 4 KCl, 0.5 MgCl2, 1 CaCl2, […], 10 Glucose (pH 7.4 with NaOH).
For data collection, the Sophion software was used and the analysis was performed off-line using Excel and GraphPad Prism.
When possible, i.e. when the % of inhibition with the highest concentration tested was more than 50%, the dose-response curves data were fitted with the following equation:
[X is log of concentration; Y is normalized response (100% down to 0%, decreasing as X increases); Log IC50 same log units as X; HillSlope is unitless slope factor or hill slope]
(In general: In patch-clamp work, channel activity is measured electrically.)

In a further assay the target is T2, human P2X4 (Homo sapiens, UniProt Q99571).
T2 sequence (Q99571 1-388): T1 sequence (Q99571 1-388)
Description: FLIPR assay, human P2X4 1321N1 Astrocytoma Cells. The format is cell-based. Further details: expressed in transfected cells. Conditions: agonist Mg-ATP at EC80. Here is the method: 1321N1 Astrocytoma cells stably expressing human P2X4 or rat P2X4 or mouse P2X4 were plated in Collagen ITO-treated microplate at a seeding density of 10000 cells/well and incubated overnight. P2X4 function was assessed by measuring intracellular calcium changes using the calcium-chelating dye Fluo8-AM (Molecular Devices) on a fluorescent imaging plate reader (FLEX/FLIPR station; Molecular Devices). On the day of the assay, the medium was removed and the cells were incubated for 30 min at […] and 5% CO2 in 30 μL of dye buffer (Hank's balanced salt solution, 10 mM HEPES, 1.8 mM CaCl2, 1 mM MgCl2, 2 mM probenecid, 5 mM D-glucose monohydrate, 5 μM Fluo8-AM, pH=7.4). Compounds diluted in probenecid buffer (Hank's balanced salt solution, 10 mM HEPES, 1.8 mM CaCl2, 1 mM MgCl2, 2 mM probenecid, 5 mM D-glucose monohydrate, pH=7.4) were added in a volume of 10 μL and allowed to incubate for 30 min at room temperature. The final assay DMSO concentration was 0.25%. The agonist, Mg-ATP (Sigma), was added in a volume of 10 μL at a concentration representing the EC80 value. EC80 was determined to be 0.5 μM for human and mouse P2X4 and 5 μM for rat P2X4. The fluorescence was measured for an interval of 120 sec at 2 sec intervals. The excitation and emission wavelengths used to monitor fluorescence were 470-495 nm and 515-575 nm, respectively. The data was analyzed based on the increase in peak relative fluorescence units (RFU) compared to the basal fluorescence and the data was normalized to the agonist control. The compounds were tested in triplicates per plate and mean values were plotted in Excel XLFit to determine IC50 values, percentage of maximal inhibition and the Hill coefficients.

Take `NS(=O)(=O)c1cc(NC(=O)Cc2ccccc2Cl)ccc1-n1cc(C(F)(F)F)cn1` [Example 19, 2-(2-Chlorophenyl)-N-{3-sulfamoyl-4-[4-(trifluoromethyl)-1H-pyrazol-1-yl]phenyl}acetamide]: the IC50 on hP2X4 was found to be 278 nM. For the same compound, on human P2X4, the “Human P2X4 1321N1 Astrocytoma Cells (FLIPR Assay) avg Efficacy” value (“Human P2X4 1321N1 Astrocytoma Cells” below) is 60% and the IC50 stood at 57 nM.
For the compound `NS(=O)(=O)c1cc(NC(=O)Cc2ccccc2Cl)cnc1-n1cc(C(F)(F)F)cn1` [Example 380, 2-(2-Chlorophenyl)-N-{5-sulfamoyl-6-[4-(trifluoromethyl)-1H-pyrazol-1-yl]pyridin-3-yl}acetamide], the IC50 at hP2X4 is 157 nM.
Take `NS(=O)(=O)c1cc(NC(=O)Cc2ccccc2Cl)ccc1-c1cnn(C(F)F)c1` [Example 326, 2-(2-Chlorophenyl)-N-{4-[1-(difluoromethyl)-1H-pyrazol-4-yl]-3-sulfamoylphenyl}acetamide]: the results for the IC50 on hP2X4 and on human P2X4 were 51 nM and 46 nM, respectively. Also, at human P2X4, the “Human P2X4 1321N1 Astrocytoma Cells” value turned out to be 80%.
Regarding `NS(=O)(=O)c1cc(NC(=O)Cc2ccccc2Cl)ccc1-n1cc(F)cn1` [Example 26, 2-(2-Chlorophenyl)-N-[4-(4-fluoro-1H-pyrazol-1-yl)-3-sulfamoylphenyl]acetamide], the IC50 on hP2X4 was determined as 222 nM.
For the compound `N#Cc1cnn(-c2ccc(NC(=O)Cc3ccccc3Cl)cc2S(N)(=O)=O)c1` [Example 39, 2-(2-Chlorophenyl)-N-[4-(4-cyano-1H-pyrazol-1-yl)-3-sulfamoylphenyl]acetamide], at human P2X4, the “Human P2X4 1321N1 Astrocytoma Cells” value amounted to 83% and the IC50 came out at 64 nM.

For the origin of these results see patent US20210179577A1, “AROMATIC SULFONAMIDE DERIVATIVES FOR THE TREATMENT OF ISCHEMIC STROKE” (Bayer Aktiengesellschaft, priority 2017, published 2021).
